One may read the pIC50 as the negative decadic logarithm of the IC50, by convention in mol/L.

Consider seven compounds from patent US10464911B2, “1,3,4-oxadiazole sulfamide derivative compounds as histone deacetylase 6 inhibitor, and the pharmaceutical composition comprising the same” (Chong Kun Dang Pharmaceutical Corp., priority 2015, dated 2019).

Assay [1] deals with human recombinant HDAC1 (Homo sapiens (Human), UniProt Q13547). Put plainly: HDAC1 enzyme activity inhibition assay (HDAC Fluorimetric Drug Discovery Kit). The format is biochemical. The settings on record: human recombinant HDAC1, Fluor de Lys substrate 10 μM, 60 minutes. The method, then: In order to examine the HDAC6 selectivity of the compounds of formula I of the present invention by HDAC1 and HDAC6 enzymatic activity inhibition assays, an experiment was performed using a conventional substance as a control.
HDAC enzyme activity was measured using a HDAC Fluorimetric Drug Discovery Kit (BML-AK511, 516, Enzo Life Science). For the HDAC1 enzyme activity test, human recombinant HDAC1 (BML-SE456) was used as an enzyme source, and Fluor de Lys®-“SIRT1 (BNL-KI177) was used as a substrate. A 5-fold dilution of the compound was seeded into a 96-well plate, and then 0.3 μg of the enzyme and 10 μM of the substrate were added to each well of the plate and allowed to react at 30 for 60 minutes. Then, Fluor de Lys®-Developer II (BML-KI176) was added thereto and allowed to react for 30 minutes, after which the fluorescence value (Ex 360, Em 460) was measured using a multi-plate reader (Flexstation 3, Molecular Device). The HDAC6 enzyme was tested using human recombinant HDAC6 (382180) (Calbiochem) according to the same protocol as the HDAC1 enzyme activity test method. Based on the resulting values, each IC50 value was calculated using GraphPad Prism4.0 program.

In assay [2] the target is human recombinant HDAC6 (Homo sapiens (Human), UniProt Q9UBN7). As to the kind of experiment: HDAC6 enzyme activity inhibition assay (HDAC Fluorimetric Drug Discovery Kit). The format is biochemical. The following applies: for HDAC6 selectivity (fold): HDAC6 versus HDAC1; for pIC50: human recombinant HDAC6, same protocol as HDAC1 test. The essentials:
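Recombinant human HDAC1 or HDAC6 (0.3 μg) reacted with 10 μM Fluor de Lys-SIRT1 substrate and 5-fold compound dilutions for 60 min at 30 °C, followed by 30 min developer. Fluorescence read at Ex 360/Em 460; IC50 calculated from the values.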

Each structure is given as a SMILES string. pIC50: −log10 of the molar value.

Chain of human recombinant HDAC1 (Q13547 whole entry): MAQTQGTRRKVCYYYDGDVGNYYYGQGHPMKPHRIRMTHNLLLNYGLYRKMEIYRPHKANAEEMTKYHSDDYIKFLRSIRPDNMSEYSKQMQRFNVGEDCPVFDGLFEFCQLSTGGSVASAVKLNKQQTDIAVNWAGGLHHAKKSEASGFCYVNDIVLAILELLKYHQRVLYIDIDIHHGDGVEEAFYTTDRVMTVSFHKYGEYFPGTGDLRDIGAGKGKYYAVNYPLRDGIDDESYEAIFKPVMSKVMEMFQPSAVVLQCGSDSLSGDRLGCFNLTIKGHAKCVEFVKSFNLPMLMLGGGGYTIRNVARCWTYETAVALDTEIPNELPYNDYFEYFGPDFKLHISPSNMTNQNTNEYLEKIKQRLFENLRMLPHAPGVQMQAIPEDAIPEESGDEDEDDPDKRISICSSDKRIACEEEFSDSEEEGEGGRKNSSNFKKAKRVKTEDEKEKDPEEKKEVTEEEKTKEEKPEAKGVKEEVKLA
Chain of human recombinant HDAC6 (Q9UBN7 whole entry): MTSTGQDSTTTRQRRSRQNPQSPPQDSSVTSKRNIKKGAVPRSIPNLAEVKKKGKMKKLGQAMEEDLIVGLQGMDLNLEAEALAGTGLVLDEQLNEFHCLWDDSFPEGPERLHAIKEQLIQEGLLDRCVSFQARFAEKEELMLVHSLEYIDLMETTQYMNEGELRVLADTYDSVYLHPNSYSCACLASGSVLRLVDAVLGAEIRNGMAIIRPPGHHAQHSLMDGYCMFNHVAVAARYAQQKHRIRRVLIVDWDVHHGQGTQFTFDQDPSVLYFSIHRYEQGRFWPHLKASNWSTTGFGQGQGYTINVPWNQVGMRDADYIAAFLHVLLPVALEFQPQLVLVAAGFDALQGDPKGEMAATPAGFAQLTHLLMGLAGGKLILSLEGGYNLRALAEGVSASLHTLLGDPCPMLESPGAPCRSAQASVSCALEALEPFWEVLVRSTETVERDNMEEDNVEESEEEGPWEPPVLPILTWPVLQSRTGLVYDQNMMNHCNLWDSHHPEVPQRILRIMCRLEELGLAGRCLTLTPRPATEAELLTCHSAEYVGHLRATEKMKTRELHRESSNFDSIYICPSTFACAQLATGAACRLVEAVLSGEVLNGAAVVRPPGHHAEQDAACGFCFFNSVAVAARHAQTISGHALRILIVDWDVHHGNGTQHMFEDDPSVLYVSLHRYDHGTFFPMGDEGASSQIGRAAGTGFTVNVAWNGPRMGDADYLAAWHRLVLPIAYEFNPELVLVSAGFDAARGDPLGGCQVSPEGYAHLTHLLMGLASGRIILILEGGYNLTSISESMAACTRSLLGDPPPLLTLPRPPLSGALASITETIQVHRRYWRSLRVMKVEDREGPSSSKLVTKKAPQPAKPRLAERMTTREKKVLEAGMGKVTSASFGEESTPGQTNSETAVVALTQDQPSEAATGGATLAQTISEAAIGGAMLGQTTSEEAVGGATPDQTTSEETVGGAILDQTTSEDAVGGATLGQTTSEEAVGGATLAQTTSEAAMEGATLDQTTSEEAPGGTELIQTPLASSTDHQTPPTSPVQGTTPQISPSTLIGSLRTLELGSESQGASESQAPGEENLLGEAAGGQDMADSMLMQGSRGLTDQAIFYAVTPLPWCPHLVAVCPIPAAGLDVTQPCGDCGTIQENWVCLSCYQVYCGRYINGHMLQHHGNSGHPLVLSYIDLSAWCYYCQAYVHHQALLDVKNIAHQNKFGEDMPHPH

Take `CC(=O)N1[C@H](C)CN(S(=O)(=O)N(Cc2ccc(-c3nnc(C(F)F)o3)cn2)c2ccccc2)C[C@@H]1C` [Compound 11659, (3S,5R)-4-acetyl-N-((5-(5-(difluoromethyl)-1,3,4-oxadiazol-2-yl)pyridin-2-yl)methyl)-3,5-dimethyl-N-phenylpiperazine-1-sulfonamide]: the pIC50 in assay [1] is 4.14; in assay [2] it was 7.59. For the same compound, the “HDAC6 selectivity (fold)” value in assay [2] is on record as 2753 fold.
For `CN1CCN(S(=O)(=O)N(Cc2ccc(-c3nnc(C(F)F)o3)cc2)c2ccc(F)c(Cl)c2)CC1` [Compound 11654, N-(3-chloro-4-fluorophenyl)-N-(4-(5-(difluoromethyl)-1,3,4-oxadiazol-2-yl)benzyl)-4-methylpiperazine-1-sulfonamide] the same measures were 4.15, 7.44 and 1996 fold.
On the same counts, the results for `CC(=O)N1[C@H](C)CN(S(=O)(=O)N(Cc2ccc(-c3nnc(C(F)F)o3)cc2)c2cccnc2)C[C@@H]1C` [Compound 11660, (3S,5R)-4-acetyl-N-(4-(5-(difluoromethyl)-1,3,4-oxadiazol-2-yl)benzyl)-3,5-dimethyl-N-(pyridin-3-yl)piperazine-1-sulfonamide] are 4.12, 7.20 and 1206 fold.
As to `O=S(=O)(N1CCN(C2COC2)CC1)N(Cc1ccc(-c2nnc(C(F)F)o2)cc1)c1ccc(F)c(Cl)c1` [Compound 11653, N-(3-chloro-4-fluorophenyl)-N-(4-(5-(difluoromethyl)-1,3,4-oxadiazol-2-yl)benzyl)-4-(oxetan-3-yl)piperazine-1-sulfonamide], the results for the negative logarithm of the IC50 (pIC50) in assay [1] and in assay [2] were 4.28 and 7.37, respectively. Further, the “HDAC6 selectivity (fold)” value in assay [2] was 1214 fold.
Consider `O=S(=O)(N1CCN(C2COC2)CC1)N(Cc1ccc(-c2nnc(C(F)(F)F)o2)cc1F)c1ccccc1` [Compound 11527, N-(2-fluoro-4-(5-(trifluoromethyl)-1,3,4-oxadiazol-2-yl)benzyl)-4-(oxetan-3-yl)-N-phenylpiperazine-1-sulfonamide], for which the negative-log IC50 (pIC50) in assay [1] is 4.32. Moreover, in assay [2], the “HDAC6 selectivity (fold)” value stood at 627 fold and the pIC50 was 7.12.
On the same counts, the results for `Cl.O=S(=O)(N1CCNCC1)N(Cc1ccc(-c2nnc(C(F)(F)F)o2)cc1F)c1ccccc1` [Compound 11293, N-(2-fluoro-4-(5-(trifluoromethyl)-1,3,4-oxadiazol-2-yl)benzyl)-N-phenylpiperazine-1-sulfonamide Hydrochloride] are 4.12, 1156 fold and 7.18.
On to `O=S(=O)(N1CCN(C2COC2)CC1)N(Cc1ccc(-c2nnc(C(F)(F)F)o2)cn1)c1ccccc1` [Compound 11528, 4-(oxetan-3-yl)-N-phenyl-N-((5-(5-(trifluoromethyl)-1,3,4-oxadiazol-2-yl)pyridin-2-yl)methyl)piperazine-1-sulfonamide], for which the pIC50 in assay [1] is 4.38. Further, in assay [2], the “HDAC6 selectivity (fold)” value amounted to 527 fold and the negative-log IC50 (pIC50) was 7.10.
